# Patent US4471131A, “Novel silyl esters of N-phosphonomethylglycine” (Monsanto Company, priority 1983, dated 1984)
# How the values were obtained:
# Assay in all cases: post-emergence herbicidal activity, greenhouse
# Assay type in all cases: in vivo
# Barnyardgrass = system: Barnyardgrass
# In short: (§1)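 The readout is plant injury compared with untreated pans, taken at two time points, about two and four weeks after spraying. Plants had grown two to three weeks in greenhouse topsoil pans before atomizer treatment.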
# Canada Thistle = conditions: Table II
# In short: as §1
# Cocklebur = system: Cocklebur
# In short: as §1
# Common Lambsquarters = system: Common Lambsquarters
# In short: as §1
# Downy Brome = system: Downy Brome
# In short: as §1
# Hemp Sesbania = conditions: Table III, formulated in anhydrous tetrahydrofuran
# In short: as §1
# Johnsongrass = conditions: Table II
# In short: as §1
# Large Crabgrass = conditions: Table III, formulated in anhydrous tetrahydrofuran
# In short: as §1
# [1] = Table II, 2 WAT, 5.6 kg/h, formulated in anhydrous tetrahydrofuran
# [2] = Table II, 2 WAT, 11.2 kg/h, formulated in anhydrous tetrahydrofuran
# [3] = Table II, 4 WAT, 11.2 kg/h, formulated in anhydrous tetrahydrofuran
# [4] = Table III, 2 WAT, 1.1 kg/h, formulated in anhydrous tetrahydrofuran
# [5] = Table III, 2 WAT, 5.6 kg/h, formulated in anhydrous tetrahydrofuran
# [6] = Table III, 2 WAT, .28 kg/h, formulated in anhydrous tetrahydrofuran
# [7] = Table III, 4 WAT, 5.6 kg/h, formulated in anhydrous tetrahydrofuran
# [8] = 2 WAT, 5.6 kg/h, formulated in anhydrous tetrahydrofuran
# [9] = 2 WAT, 11.2 kg/h, formulated in anhydrous tetrahydrofuran
# [10] = 4 WAT, 11.2 kg/h, formulated in anhydrous tetrahydrofuran
smiles,measurement,setting,value
"CC(C)(C)[Si](OP(=O)(O)CNCC(=O)O)(c1ccccc1)c1ccccc1 [Ex. 5, Glycine, N-((([(1,1-Dimethylethyl)Diphenylsilyl]oxy)-Hydroxyphosphinyl)-Methyl)-,]",Plant Response Index (K),"Barnyardgrass; Table II, 2 WAT, 5.6 kg/h",0 (0-24% inhibition)
same,Plant Response Index (K),Barnyardgrass; [1],0 (0-24% inhibition)
same,Plant Response Index (K),"Barnyardgrass; Table II, 2 WAT, 11.2 kg/h",1 (25-49% inhibition)
same,Plant Response Index (K),Barnyardgrass; [2],1 (25-49% inhibition)
same,Plant Response Index (K),"Barnyardgrass; Table II, 4 WAT, 5.6 kg/h",0 (0-24% inhibition)
same,Plant Response Index (K),"Barnyardgrass; Table II, 4 WAT, 11.2 kg/h",2 (50-74% inhibition)
same,Plant Response Index (K),Barnyardgrass; [3],0 (0-24% inhibition)
same,Plant Response Index (K),Barnyardgrass; [4],0 (0-24% inhibition)
same,Plant Response Index (K),Barnyardgrass; [5],0 (0-24% inhibition)
same,Plant Response Index (K),Barnyardgrass; [6],0 (0-24% inhibition)
same,Plant Response Index (K),Barnyardgrass; [7],0 (0-24% inhibition)
same,Plant Response Index (A),"Canada Thistle; 2 WAT, 5.6 kg/h",1 (25-49% inhibition)
same,Plant Response Index (A),Canada Thistle; [8],0 (0-24% inhibition)
same,Plant Response Index (A),"Canada Thistle; 2 WAT, 11.2 kg/h",1 (25-49% inhibition)
same,Plant Response Index (A),Canada Thistle; [9],0 (0-24% inhibition)
same,Plant Response Index (A),"Canada Thistle; 4 WAT, 5.6 kg/h",1 (25-49% inhibition)
same,Plant Response Index (A),"Canada Thistle; 4 WAT, 11.2 kg/h",1 (25-49% inhibition)
same,Plant Response Index (A),Canada Thistle; [10],1 (25-49% inhibition)
same,Plant Response Index (B),"Cocklebur; Table II, 2 WAT, 5.6 kg/h",2 (50-74% inhibition)
same,Plant Response Index (B),Cocklebur; [1],1 (25-49% inhibition)
same,Plant Response Index (B),"Cocklebur; Table II, 2 WAT, 11.2 kg/h",2 (50-74% inhibition)
same,Plant Response Index (B),Cocklebur; [2],1 (25-49% inhibition)
same,Plant Response Index (B),"Cocklebur; Table II, 4 WAT, 5.6 kg/h",1 (25-49% inhibition)
same,Plant Response Index (B),"Cocklebur; Table II, 4 WAT, 11.2 kg/h",2 (50-74% inhibition)
same,Plant Response Index (B),Cocklebur; [3],1 (25-49% inhibition)
same,Plant Response Index (B),Cocklebur; [4],1 (25-49% inhibition)
same,Plant Response Index (B),Cocklebur; [5],0 (0-24% inhibition)
same,Plant Response Index (B),Cocklebur; [6],1 (25-49% inhibition)
same,Plant Response Index (B),Cocklebur; [7],0 (0-24% inhibition)
same,Plant Response Index (E),"Common Lambsquarters; Table II, 2 WAT, 5.6 kg/h",1 (25-49% inhibition)
same,Plant Response Index (E),Common Lambsquarters; [1],0 (0-24% inhibition)
same,Plant Response Index (E),"Common Lambsquarters; Table II, 2 WAT, 11.2 kg/h",1 (25-49% inhibition)
same,Plant Response Index (E),Common Lambsquarters; [2],0 (0-24% inhibition)
same,Plant Response Index (E),"Common Lambsquarters; Table II, 4 WAT, 5.6 kg/h",0 (0-24% inhibition)
same,Plant Response Index (E),"Common Lambsquarters; Table II, 4 WAT, 11.2 kg/h",2 (50-74% inhibition)
same,Plant Response Index (E),Common Lambsquarters; [3],0 (0-24% inhibition)
same,Plant Response Index (E),Common Lambsquarters; [4],0 (0-24% inhibition)
same,Plant Response Index (E),Common Lambsquarters; [5],0 (0-24% inhibition)
same,Plant Response Index (E),Common Lambsquarters; [6],0 (0-24% inhibition)
same,Plant Response Index (E),Common Lambsquarters; [7],1 (25-49% inhibition)
same,Plant Response Index (J),"Downy Brome; Table II, 2 WAT, 5.6 kg/h",0 (0-24% inhibition)
same,Plant Response Index (J),Downy Brome; [1],0 (0-24% inhibition)
same,Plant Response Index (J),"Downy Brome; Table II, 2 WAT, 11.2 kg/h",0 (0-24% inhibition)
same,Plant Response Index (J),Downy Brome; [2],0 (0-24% inhibition)
same,Plant Response Index (J),"Downy Brome; Table II, 4 WAT, 5.6 kg/h",0 (0-24% inhibition)
same,Plant Response Index (J),"Downy Brome; Table II, 4 WAT, 11.2 kg/h",0 (0-24% inhibition)
same,Plant Response Index (J),Downy Brome; [3],0 (0-24% inhibition)
same,Plant Response Index (J),Downy Brome; [4],0 (0-24% inhibition)
same,Plant Response Index (J),Downy Brome; [5],0 (0-24% inhibition)
same,Plant Response Index (J),Downy Brome; [6],0 (0-24% inhibition)
same,Plant Response Index (J),Downy Brome; [7],0 (0-24% inhibition)
same,Plant Response Index (R),"Hemp Sesbania; 2 WAT, 1.1 kg/h",0 (0-24% inhibition)
same,Plant Response Index (R),"Hemp Sesbania; 2 WAT, 5.6 kg/h",0 (0-24% inhibition)
same,Plant Response Index (R),"Hemp Sesbania; 2 WAT, .28 kg/h",0 (0-24% inhibition)
same,Plant Response Index (R),"Hemp Sesbania; 4 WAT, 5.6 kg/h",0 (0-24% inhibition)
same,Plant Response Index (I),"Johnsongrass; 2 WAT, 5.6 kg/h",0 (0-24% inhibition)
same,Plant Response Index (I),Johnsongrass; [8],0 (0-24% inhibition)
same,Plant Response Index (I),"Johnsongrass; 2 WAT, 11.2 kg/h",1 (25-49% inhibition)
same,Plant Response Index (I),Johnsongrass; [9],0 (0-24% inhibition)
same,Plant Response Index (I),"Johnsongrass; 4 WAT, 5.6 kg/h",1 (25-49% inhibition)
same,Plant Response Index (I),"Johnsongrass; 4 WAT, 11.2 kg/h",2 (50-74% inhibition)
same,Plant Response Index (I),Johnsongrass; [10],0 (0-24% inhibition)
same,Plant Response Index (T),"Large Crabgrass; 2 WAT, 1.1 kg/h",0 (0-24% inhibition)
same,Plant Response Index (T),"Large Crabgrass; 2 WAT, 5.6 kg/h",1 (25-49% inhibition)
same,Plant Response Index (T),"Large Crabgrass; 2 WAT, .28 kg/h",0 (0-24% inhibition)
same,Plant Response Index (T),"Large Crabgrass; 4 WAT, 5.6 kg/h",1 (25-49% inhibition)
